Read-outs that look alike come from different tables or passages of the source.
Key:
[1] = test system: acutely dissociated and purified rat OPCs; test: Acute OL differentiation assay (MBP expression/cell, immunofluorescent image quantification); type: cell-based
Method in brief: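 Oligodendrocyte precursor cells were enriched from P6-P7 Sprague–Dawley rat brains by immunopanning (RAN-2 and GalC depletion, O4 selection), plated at 5000 cells/well in serum-free, mitogen-free differentiation media on PDL/laminin 96-well view plates, centrifuged at 200×g, and pre-incubated 1–2 h before test compounds were added in quadruplicate. On DIV4, cells were fixed, stained for MBP and DAPI, imaged automatically, and MBP expression per cell was quantified.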

expanded OPCs = test: cells; settings: for 0.1 µM (% DMSO) / 1 µM (% DMSO) / 10 µM (% DMSO): alamarBlue viability of expanded OPCs; for 0.1 µM (% DMSO): compound at 0.1 µM; for 1 µM (% DMSO): compound at 1 µM; for 10 µM (% DMSO): compound at 10 µM; for viability at 0.1 µM / viability at 1 µM / viability at 10 µM: Rattus norvegicus, 72 h
Method in brief: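 Expanded OPCs seeded at 10,000 cells/well in differentiation media, then exposed to NCC library compounds at 10, 1 and 0.1 µM (quadruplicate, 0.1% DMSO) for three days. Viability read as alamarBlue fluorescence (560/590 nm) after 4 h at 37 °C; tunicamycin 5 ng/ml served as toxicity control.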

[2] = Rattus norvegicus, test compound at 2 uM, NCC library screen, sheet "All OLga data", relative to quetiapine, read-out: 2 uM (% Quet)
[3] = Rattus norvegicus, test compound at 10 uM, NCC library screen, sheet "All OLga data", relative to quetiapine, read-out: 10 uM (% Quet)
[4] = Rattus norvegicus, test compound at 2 uM, MBP expression relative to quetiapine, NCC library screen, sheet "All OLga data", read-out: 2 uM (% Quet)
[5] = Rattus norvegicus, test compound at 10 uM, MBP expression relative to quetiapine, NCC library screen, sheet "All OLga data", read-out: 10 uM (% Quet)
[6] = Rattus norvegicus, 0.4 uM test compound, relative to quetiapine, sheet "All OLga data", read-out: OL differentiation, 0.4 uM (% Quet)
[7] = read-out: 0.1 µM (% DMSO), alamarBlue viability of expanded OPCs, compound at 0.1 µM, sheet All Tox data
[8] = read-out: 1 µM (% DMSO), alamarBlue viability of expanded OPCs, compound at 1 µM, sheet All Tox data
[9] = read-out: 10 µM (% DMSO), alamarBlue viability of expanded OPCs, compound at 10 µM, sheet All Tox data
[10] = read-out: 0.1 µM (% DMSO), alamarBlue viability, NCC library compound at 0.1 µM, sheet "All Tox data"
[11] = read-out: 1 µM (% DMSO), alamarBlue viability, NCC library compound at 1 µM, sheet "All Tox data"
[12] = read-out: 10 µM (% DMSO), alamarBlue viability, NCC library compound at 10 µM, sheet "All Tox data"
[13] = Rattus norvegicus, test compound at 0.4 uM, NCC library screen, sheet "All OLga data", relative to quetiapine, read-out: 0.4 uM (% Quet)

Question: What does the source list for `OCCN(CCO)c1nc(N2CCCCC2)c2nc(N(CCO)CCO)nc(N3CCCCC3)c2n1` [Dipyridamole]?
Answer: activation at 2 µM [1, 2]: 13.5%; activation at 10 µM [1, 3]: -27.3%; 0.1 µM (% DMSO) (expanded OPCs; relative to DMSO control): 107.4 % DMSO; 1 µM (% DMSO) (expanded OPCs; relative to DMSO control): 102.2 % DMSO; 10 µM (% DMSO) (expanded OPCs; relative to DMSO control): 87.5 % DMSO

Question: `CC(C)N(CCC(C(N)=O)(c1ccccc1)c1ccccn1)C(C)C` (stereo not drawn) [Disopyramide] was tested. Which activation at 2 µM [1, 4] did it give?
Answer: -10.1%

Question: What about the activation at 10 µM [1, 5] of the same compound?
Answer: -11.2%

Question: What about the “0.1 µM (% DMSO)” value (expanded OPCs; relative to DMSO control) of the same compound?
Answer: 89.6 % DMSO

Question: And the “1 µM (% DMSO)” value (expanded OPCs; relative to DMSO control)?
Answer: 92.1 % DMSO

Question: What about the “10 µM (% DMSO)” value (expanded OPCs; relative to DMSO control) of the same compound?
Answer: 88.7 % DMSO

Question: Which results are given for `O=C1c2c(O)cc(O)cc2OC(c2ccc(O)c(O)c2)C1O` (stereo not drawn) [Distylin]?
Answer: OL differentiation, 2 uM (% Quet) ([1]; 2 uM test compound, relative to quetiapine, sheet "All OLga data"): 7.2 % Quet; OL differentiation, 10 uM (% Quet) ([1]; 10 uM test compound, relative to quetiapine, sheet "All OLga data"): -26.1 % Quet; 0.1 µM (% DMSO) (expanded OPCs; sheet All Tox data): 109.5 % DMSO; 1 µM (% DMSO) (expanded OPCs; sheet All Tox data): 92.1 % DMSO; 10 µM (% DMSO) (expanded OPCs; sheet All Tox data): 99.3 % DMSO

Question: How did the activation at 0.4 µM [1, 6] turn out when `CCN(CC)C(=S)SSC(=S)N(CC)CC` [Disulfiram] was run?
Answer: -180%

Question: And the viability at 0.1 µM (expanded OPCs; [7])?
Answer: 22.6%

Question: What about the viability at 1 µM (expanded OPCs; [8]) of the same compound?
Answer: 18.1%

Question: And the viability at 10 µM (expanded OPCs; [9])?
Answer: 13.8%

Question: Which results are given for `CC(=O)O[C@@]12CO[C@@H]1C[C@H](O)[C@@]1(C)C(=O)[C@H](O)C3=C(C)[C@@H](OC(=O)[C@H](O)[C@@H](NC(=O)OC(C)(C)C)c4ccccc4)C[C@@](O)([C@@H](OC(=O)c4ccccc4)[C@H]21)C3(C)C` [Docetaxel]?
Answer: activation at 0.08 µM ([1]; Rattus norvegicus, 0.08 uM test compound, relative to quetiapine, sheet "All OLga data", read-out: OL differentiation, 0.08 uM (% Quet)): -94.4%; activation at 0.4 µM [1, 6]: -105%; viability at 0.1 µM (expanded OPCs; [7]): 39.1%; viability at 1 µM (expanded OPCs; [8]): 38.8%; viability at 10 µM (expanded OPCs; [9]): 47.6%

Question: `CN(CCOc1ccc(NS(C)(=O)=O)cc1)CCc1ccc(NS(C)(=O)=O)cc1` [Dofetilide, reference compound] was tested. Which activation at 2 µM [1, 2] did it give?
Answer: 19.4%

Question: What about the activation at 10 µM [1, 3] of the same compound?
Answer: 31.8%

Question: And the EC50 ([1]; Rattus norvegicus, average EC50 for induction of OL differentiation from independent biological replicates, eight concentrations)?
Answer: 14 µM

Question: What about the “hit in OL differentiation assay, MRF-TMC” value ([1]; ● = confirmed hit in this paper's assay) of the same compound?
Answer: ●

Question: And the viability at 0.1 µM (expanded OPCs; [10])?
Answer: 96.1%

Question: And the viability at 1 µM (expanded OPCs; [11])?
Answer: 98%

Question: And the viability at 10 µM (expanded OPCs; [12])?
Answer: 122%

Question: `O=C(O[C@@H]1C[C@@H]2C[C@H]3C[C@H](C1)N2CC3=O)c1c[nH]c2ccccc12` [Dolasetron] was tested. Which activation at 2 µM [1, 2] did it give?
Answer: 4.6%

Question: And the activation at 10 µM [1, 3]?
Answer: 18.1%

Question: And the viability at 0.1 µM (expanded OPCs; [10])?
Answer: 81%

Question: And the viability at 1 µM (expanded OPCs; [11])?
Answer: 81.8%

Question: What about the viability at 10 µM (expanded OPCs; [12]) of the same compound?
Answer: 63.4%

Question: For `NCCc1ccc(O)c(O)c1` [Dopamine], which activation at 0.4 µM [1, 13] is on record?
Answer: 3.4%

Question: What about the activation at 2 µM [1, 2] of the same compound?
Answer: -24.9%

Question: What about the viability at 0.1 µM (expanded OPCs; [10]) of the same compound?
Answer: 87%

Question: And the viability at 1 µM (expanded OPCs; [11])?
Answer: 74.7%

Question: And the viability at 10 µM (expanded OPCs; [12])?
Answer: 51.7%

Question: What does the source list for `CCN1CC(CCN2CCOCC2)C(c2ccccc2)(c2ccccc2)C1=O` (stereo not drawn) [Doxapram]?
Answer: activation at 2 µM [1, 2]: -8.9%; activation at 10 µM [1, 3]: 14.8%; viability at 0.1 µM (expanded OPCs; [10]): 89%; viability at 1 µM (expanded OPCs; [11]): 89.2%; viability at 10 µM (expanded OPCs; [12]): 79.9%

Question: What does the source list for `COc1cc2nc(N3CCN(C(=O)C4COc5ccccc5O4)CC3)nc(N)c2cc1OC` (stereo not drawn) [Doxazosin]?
Answer: activation at 0.4 µM ([1]; Rattus norvegicus, test compound at 0.4 uM, MBP expression relative to quetiapine, NCC library screen, sheet "All OLga data", read-out: 0.4 uM (% Quet)): 2%; activation at 2 µM [1, 4]: -27.2%; 0.1 µM (% DMSO) (expanded OPCs; relative to DMSO control): 140.5 % DMSO; 1 µM (% DMSO) (expanded OPCs; relative to DMSO control): 157.6 % DMSO; 10 µM (% DMSO) (expanded OPCs; relative to DMSO control): 18.9 % DMSO

Question: `CN(C)CCC=C1c2ccccc2COc2ccccc21` [Doxepin] was tested. Which activation at 2 µM ([1]; Rattus norvegicus, 2 uM test compound, relative to quetiapine, sheet "All OLga data", read-out: OL differentiation, 2 uM (% Quet)) did it give?
Answer: 47.3%

Question: What about the activation at 10 µM ([1]; Rattus norvegicus, 10 uM test compound, relative to quetiapine, sheet "All OLga data", read-out: OL differentiation, 10 uM (% Quet)) of the same compound?
Answer: 37.1%

Question: And the activation at 0.4 µM [1, 13]?
Answer: 2.7%

Question: What about the activation at 2 µM [1, 2] of the same compound?
Answer: 36%

Question: And the viability at 0.1 µM (expanded OPCs; [7])?
Answer: 81.5%

Question: What about the viability at 1 µM (expanded OPCs; [8]) of the same compound?
Answer: 85%

Question: What about the viability at 10 µM (expanded OPCs; [9]) of the same compound?
Answer: 64.4%

Question: And the “0.1 µM (% DMSO)” value (expanded OPCs; relative to DMSO control)?
Answer: 109.3 % DMSO

Question: And the “1 µM (% DMSO)” value (expanded OPCs; relative to DMSO control)?
Answer: 91.6 % DMSO

Question: What about the “10 µM (% DMSO)” value (expanded OPCs; relative to DMSO control) of the same compound?
Answer: 52.1 % DMSO

Question: Which results are given for `C[C@H]1c2cccc(O)c2C(=O)C2=C(O)[C@]3(O)C(=O)C(C(N)=O)=C(O)[C@@H](N(C)C)[C@@H]3[C@@H](O)[C@@H]21` [Doxycycline]?
Answer: activation at 2 µM [1, 4]: 4.2%; activation at 10 µM [1, 5]: -18.6%; 0.1 µM (% DMSO) (expanded OPCs; relative to DMSO control): 95.2 % DMSO; 1 µM (% DMSO) (expanded OPCs; relative to DMSO control): 91.4 % DMSO; 10 µM (% DMSO) (expanded OPCs; relative to DMSO control): 82.8 % DMSO
